Consider five compounds from article PMC6889535, “Validation of Plasmodium falciparum dUTPase as the target of 5′-tritylated deoxyuridine analogues with anti-malarial activity” (Malaria Journal, 2019).

For one test, the target named is T1, PfdUTPase (Plasmodium falciparum, UniProt Q8II92).
T1 construct: made in house
T1 sequence (Q8II92 1-173): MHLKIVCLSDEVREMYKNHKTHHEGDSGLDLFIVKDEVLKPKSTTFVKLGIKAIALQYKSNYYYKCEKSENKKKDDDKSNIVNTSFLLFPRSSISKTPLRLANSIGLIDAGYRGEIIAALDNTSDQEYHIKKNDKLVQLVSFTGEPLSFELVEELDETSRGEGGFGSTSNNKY
As to the kind of experiment: Inhibition of Plasmodium dUTPase (Ki). The class given is biochemical. The note with it: for Ki: average of three independent experiments ± standard errors.

The target in a further test is T2, HsdUTPase (Homo sapiens, UniProt P33316).
T2 construct: made in house
T2 sequence (P33316 1-164 isoform P33316-2): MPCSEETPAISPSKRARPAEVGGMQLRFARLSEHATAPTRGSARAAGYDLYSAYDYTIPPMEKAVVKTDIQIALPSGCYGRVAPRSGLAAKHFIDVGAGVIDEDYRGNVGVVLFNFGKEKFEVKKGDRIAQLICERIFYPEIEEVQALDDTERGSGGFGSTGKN
As to the kind of experiment: Inhibition of human dUTPase (Ki). The class given is biochemical. The note with it: average of three independent experiments ± standard errors. The text has this: Table 1 Ki values for Plasmodium and human dUTPases and IC50s for intraerythrocytic stages of Plasmodium falciparum | column: Ki HsdUTPase

The subject of test [1] is Plasmodium falciparum 3D7. In words: In vitro inhibitory activity against erythrocytic stages of P. falciparum (3H-hypoxanthine incorporation assay). The class given is cell-based. The note with it: intraerythrocytic stages of Plasmodium falciparum; average of three independent experiments ± standard errors; read-out: IC50 Pf3D7. As to the method: (§1) In vitro inhibitory activity against the erythrocytic stages of P. falciparum of overexpressing mutants was determined by using the SYBR green assay and the ^3H-hypoxanthine incorporation assay was used for IC50 determination as previously described. Plasmodium falciparum 3D7 was cultured using standard methods, and synchronized using 5% sorbitol as previously described. Compounds were dissolved in DMSO and added at different concentrations (8–500 ng/ml) to 48 h post-synchronization parasites. […] Chloroquine dissolved in water was used as standard drug. Experiments were carried out at least twice independently and the different concentrations were tested in duplicate. IC50 values were calculated using a four-parameter logistic regression model using data obtained from two or three independent experiments as indicated.

Test [2] concerns Plasmodium falciparum lines overexpressing PfdUTPase (PfdUTPase OE). As to the kind of experiment: IC50 shift in P. falciparum line overexpressing PfdUTPase (SYBR green assay). The class given is cell-based. The note with it: PfdUTPase overexpressing line vs parental line 3D7. As to the method: as §1
(§2) Subsequently, the IC50 for each cell line with each compound and the fold change relative to the 3D7 IC50 was calculated (Fig. 3a). […] The IC50 for chloroquine as a reference compound was also determined in overexpressing mutants.

In test [3] the test system is Plasmodium falciparum lines overexpressing human dUTPase (HsdUTPase OE). In words: IC50 shift in P. falciparum line overexpressing human dUTPase (SYBR green assay). The class given is cell-based. The note with it: HsdUTPase overexpressing line vs parental line 3D7. Here is the method: as §1, §2
Test [4] deals with dTTP and dUTP pools in Plasmodium cultures. In words: Intracellular dTTP and dUTP levels by modified DNA polymerase assay. The class given is cell-based, Plasmodium falciparum. The note with it: schizont stage, 20 h of treatment, 1× and 3× the IC50; effect at high concentrations. Here is the method: The effect of different dUTPase inhibitors on dUTP and dTTP levels from P. falciparum cells was measured using a modified DNA polymerase assay. The template sequence employed was the oligonucleotide 5′-[…]-3′ and as primer sequence the oligonucleotide 5′-CCGCCTCCACCGCC-3′ was used. Saponin-isolated parasite pellets (5 × 10^8 parasites per sample) were repeatedly washed in PBS and frozen at − 80 °C. Frozen pellets were extracted with 200 μl of cold methanol/water (1:1, v/v) vigorously by vortexing, freeze-thawed twice and centrifuged. Supernatants were collected and pellets were re-extracted with the same volume of methanol/water as previously mentioned and newly centrifuged. The combined supernatants were dried under vacuum. The residues were dissolved in 40 μl either of dUTPase buffer (34 mM Tris–HCl pH 7.8, 5 mM MgCl2) or dUTPase buffer plus 30 ng of HsdUTPase and incubated for 20 min at 37 °C. To stop the reaction, 60 μl of 100% methanol were added and the samples were incubated for 1 h at − 20 °C, followed by centrifugation for 20 min at 16,000×g. The supernatants were again dried under vacuum and the DNA polymerase assay used was modified from that of Horowitz et al.. The DNA polymerase I buffer contained 34 mM Tris–HCl pH 7.8, and 50 mM MgCl2. After incubation with DNA polymerase I, 30 μl of each sample were incubated for 30 min at 4 °C with 470 μl of DNA polymerase I buffer containing 10% (v/v) trichloroacetic acid to precipitate the DNA. The solution was blotted onto a glass microfibre filter GF/C (Whatman) and each filter was washed under vacuum with 30 ml of a solution of 5% (v/v) trichloroacetic acid and 3 ml of ethanol, dried and the radioactivity was counted using a LS 6500 Multi-Purpose Scintillation Counter (Beckman Coulter).
The levels of intracellular dTTP and dUTP were measured using the DNA polymerase based assay in Plasmodium cultures incubated with compounds 3 and 4. Parasites for dUTP and dTTP measurements were obtained from highly synchronized cultures in schizont stage after 20 h of treatment with concentrations of compound that corresponded with 1× and 3× the IC50 concentration.

Broadly, the Ki is a dissociation constant, usually derived from enzyme kinetics or from competition with a known ligand. Low values mean tighter binding, high ones weaker binding. Usually IC50 stands for the point on the concentration scale where inhibition reaches its midpoint. With “3- N-(4-(carboethoxy)butylurea)-5-tritylamino-2,3-dideoxy-β-D-xylofuranosyluracil [Compound 1]”, the values for the Ki on PfdUTPase and on HsdUTPase were 4730 ± 160 nM and greater than 100 µM, respectively. Moreover, the IC50 in test [1] was 40 ± 10 nM.

Regarding `CCOC(=O)CCCNC(=O)NCC(CCn1ccc(=O)[nH]c1=O)CNC(c1ccccc1)(c1ccccc1)c1ccccc1` (centres unmarked) [Compound 2, Ethyl 4-(3-(4-(2,4-dioxo-3,4-dihydropyrimin-1(2H)-yl)-2-((tritylamino)methyl)butyl)uredio)butanoate], the figures for the Ki on PfdUTPase and on HsdUTPase were 560 ± 80 nM and 12.2 ± 6.91 µM, respectively. The IC50 in test [1] amounted to 60 ± 10 nM.

Take `O=C(Nc1ccc(C(=O)O)cc1)O[C@H]1C[C@H](n2ccc(=O)[nH]c2=O)O[C@@H]1CNC(c1ccccc1)(c1ccccc1)c1ccccc1` [Compound 3, 3’-O-(4-(carboxy)phenylurethane)-5’-N-tritylamino-2’,5’-dideoxyuridine]: the Ki on PfdUTPase is 79 ± 22 nM; on HsdUTPase it was greater than 100 µM. Besides, the half-inhibitory concentration (IC50) in test [1] stood at 120 ± 50 nM. Also, the “Fold change in IC50 relative to the 3D7 IC50” value is 3.8 fold in test [2] and 2.3 fold in test [3]. The dTTP pool entry in test [4] was “significant decrease”. Besides, the dUTP pool entry in test [4] is “increase”.

Consider `CCOC(=O)c1ccc(NC(=O)NCC(CCn2ccc(=O)[nH]c2=O)CNC(c2ccccc2)(c2ccccc2)c2ccccc2)cc1` (centres unmarked) [Compound 4, Ethyl 4-(3-(4-(2,4-dioxo-3,4-dihydropyrimin-1(2H)-yl)-2-((tritylamino)methyl)butyl)uredio)benzoate], for which the “Activity against the enzyme relative to compound 3” value at PfdUTPase (PfdUTPase, compared with compound 3) is reported as “eightfold less active”. The Ki at PfdUTPase was 610 ± 70 nM; on HsdUTPase, greater than 100 µM. In test [1], the half-maximal inhibitory concentration (IC50) turned out to be 150 ± 30 nM. The entries for the “Fold change in IC50 relative to the 3D7 IC50” value in test [2] and in test [3] were 4 fold and 2.5 fold, respectively. Moreover, the dTTP pool entry in test [4] is “significant decrease”. The dUTP pool result in test [4] is “increase”.

For the compound `CCN(CC)CCCC(C)Nc1ccnc2cc(Cl)ccc12` (centres unmarked) [chloroquine, Chloroquine, reference compound], the “Fold change in IC50 relative to the 3D7 IC50” value in test [2] and in test [3] was “No significant effects” in each case.
